Data: ChEMBL document CHEMBL5614394, “Novel pleuromutilin derivatives conjugated with phenyl-sulfide and boron-containing moieties as potent antibacterial agents against antibiotic-resistant bacteria” (Eur J Med Chem, 2024)
≈ marks a conversion by molar mass, not a printed value. Calls of active or inactive are those of the source. No cut-off for these calls is given here.

Legend:
Staphylococcus aureus [1] = experiment: Antibacterial activity against methicilin-resistant Staphylococcus aureus isolate 15-2 assessed as inhibition of visible growth of bacteria incubated for 24 hrs by CLSI protocol based broth-dilution method; type: functional
Staphylococcus aureus [2] = experiment: Antibacterial activity against Staphylococcus aureus USA 300 assessed as inhibition of visible growth of bacteria incubated for 24 hrs by CLSI protocol based broth-dilution method; type: functional
[3] = Acute toxicity in male CD-1 mouse assessed as effect on survival at 40 mg/kg, iv administered as single dose for 7 days; type: organism-based; conditions: in vivo, 168 h, time 7 day
Streptococcus pneumoniae [4] = experiment: Antibacterial activity against penicillin resistant Streptococcus pneumoniae isolate 20-4 assessed as inhibition of visible growth of bacteria incubated for 24 hrs by CLSI protocol based broth-dilution method; type: functional
Streptococcus pneumoniae [5] = experiment: Antibacterial activity against penicillin resistant Streptococcus pneumoniae isolate 20-1 assessed as inhibition of visible growth of bacteria incubated for 24 hrs by CLSI protocol based broth-dilution method; type: functional
Enterococcus faecium [6] = experiment: Antibacterial activity against pleuromutilin-resistant Enterococcus faecium 18SC29-2 harboring (lsa(E)-) genotype assessed as inhibition of visible growth of bacteria incubated for 24 hrs by CLSI protocol based broth-dilution method; type: functional
Staphylococcus aureus [7] = experiment: Antibacterial activity against methicillin resistant Staphylococcus aureus USA 300 infected in peritonitis sepsis CD-1 mouse model assessed as mouse survival rate at 40 mg/kg, iv administered as double dose with 6 hrs interval and measured after 7 days relative to control; type: functional; conditions: USA 300, 168 h, time 7 day
[8] = Stability in rat liver microsomes assessed as drug metabolism at 1 uM measured within 1 hrs in presence of NADPH by LC-MS analysis; type: ADME, Microsome; conditions: read-out: Drug metabolism
Staphylococcus aureus [9] = experiment: Antibacterial activity against Staphylococcus aureus ATCC 43300 assessed as inhibition of visible growth of bacteria incubated for 24 hrs by CLSI protocol based broth-dilution method; type: functional
[10] = system: Staphylococcus epidermidis; experiment: Antibacterial activity against Staphylococcus epidermidis ATCC 12228 assessed as inhibition of visible growth of bacteria incubated for 24 hrs by CLSI protocol based broth-dilution method; type: functional
Staphylococcus aureus [11] = experiment: Antibacterial activity against methicillin-resistant Staphylococcus aureus J1 harboring (lsa(E)+) genotype assessed as inhibition of visible growth of bacteria incubated for 24 hrs by CLSI protocol based broth-dilution method; type: functional
Streptococcus pneumoniae [12] = experiment: Antibacterial activity against penicillin sensitive Streptococcus pneumoniae isolate 20-1 assessed as inhibition of visible growth of bacteria incubated for 24 hrs by CLSI protocol based broth-dilution method; type: functional
Staphylococcus aureus [13] = experiment: Antibacterial activity against methicillin-resistant Staphylococcus aureus USA 300 assessed as number of colonies with prevalence of spontaneous mutation at 8 times of MIC incubated for 48 hrs by agar dilution assay; type: functional
Staphylococcus aureus [14] = experiment: Bactericidal activity against methicillin-resistant Staphylococcus aureus USA 300 assessed as inhibition of bacterial growth at 8 times of MIC by time kill kinetics assay; type: functional, organism-based; conditions: time <= 24.0 hrs, TDE = time-dependent effect
[15] = Stability in human liver microsomes assessed as drug metabolism at 1 uM measured within 1 hrs in presence of NADPH by LC-MS analysis; type: ADME, Microsome; conditions: read-out: Drug metabolism
Streptococcus pneumoniae [16] = experiment: Antibacterial activity against penicillin resistant Streptococcus pneumoniae isolate 20-2 assessed as inhibition of visible growth of bacteria incubated for 24 hrs by CLSI protocol based broth-dilution method; type: functional
Staphylococcus aureus [17] = experiment: Antibacterial activity against methicillin-resistant Staphylococcus aureus USA 300 assessed as inhibition of bacterial growth at 1 times of MIC measured upto 24 hrs by time-kill kinetics assay; type: functional, organism-based
Staphylococcus aureus [18] = experiment: Antibacterial activity against Staphylococcus aureus ATCC 33591 assessed as inhibition of visible growth of bacteria incubated for 24 hrs by CLSI protocol based broth-dilution method; type: functional
Staphylococcus simulans = experiment: Antibacterial activity against pleuromutilin-resistant Staphylococcus simulans isolate 55-1 harboring cfr+ genotype assessed as inhibition of visible growth of bacteria incubated for 24 hrs by CLSI protocol based broth-dilution method; type: functional
[19] = Stability in mouse liver microsomes assessed as drug metabolism at 1 uM measured within 1 hrs in presence of NADPH by LC-MS analysis; type: ADME, Microsome; conditions: read-out: Drug metabolism
Staphylococcus aureus [20] = experiment: Antibacterial activity against Staphylococcus aureus ATCC 25923 assessed as inhibition of visible growth of bacteria incubated for 24 hrs by CLSI protocol based broth-dilution method; type: functional
HUVEC = experiment: Cytotoxicity against HUVEC cells incubated for 48 hrs by MTT assay; type: toxicity, cell-based; conditions: human
HEK293 = experiment: Cytotoxicity against HEK293 cells incubated for 48 hrs by MTT assay; type: toxicity, cell-based; conditions: human, hek293, 48 h
Staphylococcus aureus [21] = experiment: Antibacterial activity against methicillin-resistant Staphylococcus aureus USA 300 assessed as number of colonies with prevalence of spontaneous mutation at 4 times of MIC incubated for 48 hrs by agar dilution assay; type: functional
Enterococcus faecium [22] = experiment: Antibacterial activity against pleuromutilin-resistant Enterococcus faecium 18FJZ1-1 harboring (lsa(E)+) genotype assessed as inhibition of visible growth of bacteria incubated for 24 hrs by CLSI protocol based broth-dilution method; type: functional
Staphylococcus aureus [23] = experiment: Antibacterial activity against Staphylococcus aureus ATCC 29213 assessed as inhibition of visible growth of bacteria incubated for 24 hrs by CLSI protocol based broth-dilution method; type: functional
Enterococcus faecalis [24] = experiment: Antibacterial activity against Enterococcus faecalis HB 24-4 assessed as inhibition of visible growth of bacteria incubated for 24 hrs by CLSI protocol based broth-dilution method; type: functional
Escherichia coli = experiment: Antibacterial activity against Escherichia coli ATCC 25922 assessed as inhibition of visible growth of bacteria incubated for 24 hrs by CLSI protocol based broth-dilution method; type: functional
Streptococcus pneumoniae [25] = experiment: Antibacterial activity against penicillin resistant Streptococcus pneumoniae isolate 20-3 assessed as inhibition of visible growth of bacteria incubated for 24 hrs by CLSI protocol based broth-dilution method; type: functional
Staphylococcus aureus [26] = experiment: Antibacterial activity against Staphylococcus aureus ATCC 700699 assessed as inhibition of visible growth of bacteria incubated for 24 hrs by CLSI protocol based broth-dilution method; type: functional
Staphylococcus aureus [27] = experiment: Antibacterial activity against methicillin resistant Staphylococcus aureus USA 300 infected in peritonitis sepsis CD-1 mouse model assessed as mouse survival rate at 40 mg/kg, iv administered as single dose and measured after 7 days relative to control; type: functional; conditions: USA 300, 168 h, time 7 day
Enterococcus faecalis [28] = experiment: Antibacterial activity against Enterococcus faecalis ATCC 29212 assessed as inhibition of visible growth of bacteria incubated for 24 hrs by CLSI protocol based broth-dilution method; type: functional
Staphylococcus aureus [29] = experiment: Antibacterial activity against Staphylococcus aureus ATCC 700788 assessed as inhibition of visible growth of bacteria incubated for 24 hrs by CLSI protocol based broth-dilution method; type: functional
Acinetobacter baumannii = experiment: Antibacterial activity against Acinetobacter baumannii ATCC 19606 assessed as inhibition of visible growth of bacteria incubated for 24 hrs by CLSI protocol based broth-dilution method; type: functional
[30] = system: Staphylococcus epidermidis; experiment: Antibacterial activity against methicillin-sensitive Staphylococcus epidermidis isolate 20-15 assessed as inhibition of visible growth of bacteria incubated for 24 hrs by CLSI protocol based broth-dilution method; type: functional
[31] = system: Staphylococcus epidermidis; experiment: Antibacterial activity against methicillin-resistant Staphylococcus epidermidis isolate 20-26 assessed as inhibition of visible growth of bacteria incubated for 24 hrs by CLSI protocol based broth-dilution method; type: functional
[32] = system: Staphylococcus epidermidis; experiment: Antibacterial activity against methicillin-resistant Staphylococcus epidermidis isolate 20-27 assessed as inhibition of visible growth of bacteria incubated for 24 hrs by CLSI protocol based broth-dilution method; type: functional
[33] = system: Staphylococcus epidermidis; experiment: Antibacterial activity against methicillin-resistant Staphylococcus epidermidis isolate 20-28 assessed as inhibition of visible growth of bacteria incubated for 24 hrs by CLSI protocol based broth-dilution method; type: functional
[34] = system: Staphylococcus epidermidis; experiment: Antibacterial activity against methicillin-resistant Staphylococcus epidermidis isolate 20-29 assessed as inhibition of visible growth of bacteria incubated for 24 hrs by CLSI protocol based broth-dilution method; type: functional

Compound | MIC (Staphylococcus aureus [1]) [µg/mL] | MIC (Staphylococcus aureus [2]) [µg/mL] | MIC (Streptococcus pneumoniae [4]) [µg/mL] | MIC (Streptococcus pneumoniae [5]) [µg/mL] | MIC (Enterococcus faecium [6]) [µg/mL] | metabolised at 1 h, 1 µM [8] [%] | MIC (Staphylococcus aureus [9]) [µg/mL] | MIC (Staphylococcus aureus [11]) [µg/mL] | MIC (Streptococcus pneumoniae [12]) [µg/mL] | metabolised at 1 h, 1 µM [15] [%] | MIC (Streptococcus pneumoniae [16]) [µg/mL] | MIC (Staphylococcus aureus [18]) [µg/mL] | MIC (Staphylococcus simulans) [µg/mL] | metabolised at 1 h, 1 µM [19] [%] | MIC (Staphylococcus aureus [20]) [µg/mL] | MIC (Enterococcus faecium [22]) [µg/mL] | MIC (Staphylococcus aureus [23]) [µg/mL] | MIC (Enterococcus faecalis [24]) [µg/mL] | MIC (Escherichia coli) [µg/mL] | MIC (Streptococcus pneumoniae [25]) [µg/mL] | further results
C=C[C@]1(C)C[C@@H](OC(=O)CSc2cccc(NC(=O)c3ccc4c(c3)B(O)OC4)c2)[C@]2(C)[C@H](C)CC[C@]3(CCC(=O)[C@H]32)[C@@H](C)[C@@H]1O | ≤ 0.03 | ≤ 0.03 | 0.06 (≈ 0.0929 µM) | 0.06 (≈ 0.0929 µM) | ≤ 0.03 | 52.7 | ≤ 0.03 | 4 (≈ 6.2 µM) | 0.06 (≈ 0.0929 µM) | 51.1 | 0.06 (≈ 0.0929 µM) | ≤ 0.03 | 1 (≈ 1.55 µM) | 67.2 | ≤ 0.03 | 2 (≈ 3.1 µM) | ≤ 0.016 | 0.25 (≈ 0.387 µM) | 32 (≈ 49.6 µM) | ≤ 0.03 | Activity [3]: Non-Toxic; survival at 40 mg/kg (Staphylococcus aureus [7]): 50%; MIC [10]: 0.016 µg/mL (≈ 0.0248 µM); Activity (Staphylococcus aureus [13]): <4.7 10^-11No_unit; Activity (Staphylococcus aureus [14]): Tde; Activity (Staphylococcus aureus [17]): Active; Activity (HUVEC): Non-Toxic; Activity (HEK293): Non-Toxic; Activity (Staphylococcus aureus [21]): <4.7 10^-11No_unit; MIC (Staphylococcus aureus [26]): ≤ 0.03 µg/mL; survival at 40 mg/kg (Staphylococcus aureus [27]): 17%; MIC (Enterococcus faecalis [28]): 1 µg/mL (≈ 1.55 µM); MIC (Staphylococcus aureus [29]): ≤ 0.03 µg/mL; MIC (Acinetobacter baumannii): > 64 µg/mL; MIC [30]: ≤ 0.03 µg/mL
C=C[C@]1(C)C[C@@H](OC(=O)CS[C@@H]2CC[C@@H](N)C[C@H]2O)[C@]2(C)[C@H](C)CC[C@]3(CCC(=O)[C@H]32)[C@@H](C)[C@@H]1O [LEFAMULIN] | 0.5 (≈ 0.985 µM) | 0.25 (≈ 0.492 µM) | 1 (≈ 1.97 µM) | 1 (≈ 1.97 µM) | – | 80.2 | 0.25 (≈ 0.492 µM) | – | 1 (≈ 1.97 µM) | 84 | 1 (≈ 1.97 µM) | 0.25 (≈ 0.492 µM) | – | 41.4 | ≤ 0.25 | – | 0.25 (≈ 0.492 µM) | 2 (≈ 3.94 µM) | 8 (≈ 15.8 µM) | 1 (≈ 1.97 µM) | MIC [31]: 0.5 µg/mL (≈ 0.985 µM); MIC [32]: 0.25 µg/mL (≈ 0.492 µM); MIC [33]: 0.25 µg/mL (≈ 0.492 µM); MIC [34]: 0.125 µg/mL (≈ 0.246 µM); MIC (Staphylococcus aureus [26]): 0.25 µg/mL (≈ 0.492 µM); survival at 40 mg/kg (Staphylococcus aureus [27]): 33%; MIC (Enterococcus faecalis [28]): 32 µg/mL (≈ 63 µM); MIC (Staphylococcus aureus [29]): 0.5 µg/mL (≈ 0.985 µM); MIC (Acinetobacter baumannii): > 64 µg/mL; MIC [30]: 0.25 µg/mL (≈ 0.492 µM)
C=C[C@]1(C)C[C@@H](OC(=O)CSCCN(CC)CC)[C@]2(C)[C@H](C)CC[C@]3(CCC(=O)[C@H]32)[C@@H](C)[C@@H]1O [TIAMULIN] | – | – | – | – | 2 (≈ 4.05 µM) | – | – | > 32 | – | – | – | – | > 32 | – | – | > 32 | – | – | – | – | –
